Assay results from doi:10.1101/2025.03.14.643404, “A Bivalent Molecular Glue Linking Lysine Acetyltransferases to Oncogene-induced Cell Death” (bioRxiv, 2025).

Tests used:
SUDHL5 cells [1] = assay: Annexin V staining of SUDHL5; assay type: cell-based, human
Method: 25,000 cells were plated in 200 μL of media in 96 well U-bottom plates and treated with compound. […] Centrifugation and washing was repeated once more. Cells were then resuspended in 50 μL cold binding buffer (10 mM HEPES pH 7.4, 140 mM NaCl, 2.5 mM CaCl2) and 2.5 μL FITC-Annexin-V (Biolegend 640922). A no-stain control was also included to draw gates. The plate was allowed to incubate for 15 minutes at room temperature, at which point 100 μL of 2.5% FBS in PBS was added to each well. The plate was gently agitated through shaking, and samples were analyzed by flow cytometry on a BD Accuri. At least 50k events were collected per sample.

DB = assay: Cell viability, 7 days compound treatment (Cell Titer-Glo), DB; assay type: cell-based; conditions: Homo sapiens, 168 h, read-out: IC50 of antiproliferation
Method: Fifteen thousand cells were seeded in 100 μl of media per well of a U-bottom 96-well plate and treated with digitally dispensed drugs (Tecan D300e) for the indicated times and doses. After 96 hours, plates were centrifuged for 750 rpm for 3 minutes, and old media was exchanged for 100 μl of fresh media. Drug treatment was then repeated at the indicated doses. 72 hours following media change, cells were transferred to 96 well flat-bottom opaque plates. Viability was measured by adding 25 μL Cell Titer-Glo reagent (Promega G7570) to each well and luminescence was measured (BMG Labtech Pherastar FS). The background luminescence was subtracted, and the signal was normalized to DMSO-treated cells. IC50 measurements on cell lines were calculated using at least three biological replicates by separate cell passages. Fit of dose–response curves to data and statistical analysis was performed using GraphPad PRISM using the four-parameter log(inhibitor) vs response function.

SUDHL5 cells [2] = assay: RNA-seq differential genes in SUDHL5; assay type: cell-based, human; conditions: SUDHL5, 1 nM, 30 min, 1, 2 and 4 hours; adj. P ≤ 0.05, |log2(fold change)| ≥ 0.5
Method: (§1) Cells were plated at 1M/mL and harvested in TRIsure (Bioline 38033). RNA was extracted using Direct-zol RNA MicroPrep columns (Zymo R2062) treated with DNAseI. cDNA was prepared (Meridian Bioscience BIO-65054) and used for qPCR (Meridian Bioscience BIO-94050) using an AppliedBiosystems QuantStudio 6Pro. Primer sequences were the following:
(§2) For sequencing library preparation, rRNA was depleted (NEB E7400) and total RNA prepared into paired-end libraries (NEB E7765) and indexed (NEB E7335). Library size distributions were confirmed using an Agilent Bioanalyzer and High Sensitivity DNA reagents (Agilent 5067) and concentrations determined by qPCR. […]
(§3) Raw reads were checked for quality using fastqc (https://www.bioinformatics.babraham.ac.uk/projects/fastqc/) and trimmed from adapters using cutadapt[111] using parameters cutadapt -a […] -b […] --nextseq-trim=20 --minimum-length 1. Transcripts were quantified using kallisto[112] against the human Gencode v33 indexed transcriptome and annotations. […] Re-processed published datasets from the Sequence Read Archive (SRA) were the following: TCIP1 – SRX20228454, SRX20228455, SRX202284546, SRX20228457, SRX20228458, SRX20228459, SRX20228448, SRX20228449, SRX20228450; CDK-TCIP1 – SRX22117221, SRX22117222, SRX22117223, SRX22117224, SRX22117225, SRX22117226, SRX22117227, SRX22117228, SRX22117229).

c-MYC = assay: RNA-seq, c-MYC transcripts in SUDHL5; assay type: cell-based, human; conditions: SUDHL5, 1 nM, 2 hours
Method: as §1, §2, §3

## CNC(=O)COc1cc2cc(Nc3nc(N4CCC(C(=O)N5CCN(CCC(=O)N6CCC(n7nc(N8CCCc9cc(-c%10cnn(C)c%10)c(C(F)F)cc98)c8c7CCN(C(=O)NC)C8)CC6)CC5)CC4)ncc3Cl)cc(OC)c2n(C)c1=O [TCIP3]
SUDHL5 cells [1]; SUDHL5, 10 nM, 72 hours
  Annexin V-positive cells, times higher than DMSO: 2.9 times
  Annexin V-positive cells, times higher than NEG1: 2.3 times
  Annexin V-positive cells, times higher than NEG2: 2.5 times
  cells stained positive for Annexin V: 82%
SUDHL5 cells [1]; SUDHL5, 24, 48, 72 hours
  induction of apoptosis: significant increases in Annexin V-positive cells began after 48 hours
DB
  IC50: 9.8 nM
SUDHL5 cells [2]
  number of genes decreased: 2,126
  number of genes induced: 1,510
c-MYC
  c-MYC mRNA log2(fold change): −2.71
